For two compounds, minimum killing concentration, Haze and Zoospores results are on record in patent US20160278348A1, “METHOD FOR CONTROLLING WATER MOLDS IN AQUACULTURE WATER” (SUKEGAWA CHEMICALS CO., LTD., priority 2014, published 2016).

For test [1], the system named is water molds (genus Saprolegnia). In words: Experiment 2: water mold culture on hempseed cotyledons, sensitized time 60 min. Format: cell-based.
For test [2] the test system is unchanged. Kind of test: Experiment 1: water mold culture on hempseed cotyledons, sensitized time 30 min. Format: cell-based. The note with it: 100 ppm; sensitized 30 min.
Method: Based on “Testing Methods for City Water (2001 edition) by Japan Water Works Association, VIII Microbial Tests, 4.4.2.2 Water Mold Culture Method”, one hempseed cotyledon with water molds and 300 mL of sterilized tap water were placed in a sterilized 500-mL conical flask, and then 5 sterilized hempseed cotyledons were placed in the conical flask and cultured at ordinary temperature. The water molds (genus Saprolegnia) were collected from a hatchery in a fish farm for salmons and trout. […] The water in fee conical flask was diluted with sterilized tap water to prepare a zoospore suspension containing 10 to 12 zoospores of the water molds per 100 μL. It is to be noted that the tap water used was city water (pH 6.0) in Kobe.
The zoospore suspension was added to a sterilized tube (5 mL capacity) containing 3 hempseed cotyledons and stirred, and was then allowed to stand at room temperature for 3 days. After 3 days, 900 μL of a chemical solution was added to the sterilized tube, and the resulting mixture was stirred and then allowed to stand for 30 minutes for sensitization. […]
Based on the results of the observation, the minimum killing concentration of an active ingredient contained in the chemical solution was determined. […]

Consider sodium chlorite, for which the minimum killing concentration in test [1] (sensitized time 60 minutes, as chlorine dioxide) was found to be 2.5 ppm.
Take `O=[N+]([O-])C(Br)(CO)CO` [bronopol]: the Haze result in test [1] (100 ppm, sensitized 60 min) is “no effect”; in test [1] (1200 ppm, sensitized 60 min) it was “could not be prevented”; in test [2], “no effect”. The Zoospores result in test [1] (100 ppm, sensitized 60 min) is on record as “effective”; in test [2] it was “effective”.
